Measured values from patent US9221767B2, “Substituted phthalazinones as rock inhibitors” (BRISTOL-MYERS SQUIBB COMPANY, priority 2013, dated 2015).
Like-named read-outs stand apart in the source and are kept apart here.

What was measured:
[1] = tested on: neointimal formation in rats; settings: cited from earlier work
[2] = tested on: spontaneously hypertensive rat, renal hypertensive rat and deoxycortisone acetate salt hypertensive rat models; settings: cited from earlier work
[3] = tested on: Dahl salt-sensitive rats; settings: rat, in vivo; cited from earlier work
[4] = biological target: ROCK1 (Homo sapiens (Human), UniProt Q13464); assay: ROCK assay (LabChip peptide phosphorylation), ROCK1; assay type: biochemical; settings: 5 μM ATP, 1.5 μM peptide substrate
Procedure: (§1) The effectiveness of compounds of the present invention as ROCK inhibitors can be determined in a 30 μL assay containing 20 mM HEPES, pH 7.5, 20 mM MgCl2, 0.015% Brij-35, 4 mM DTT, 5 μM ATP and 1.5 μM peptide substrate (FITC-AHA-[…]-OH). Compounds were dissolved in DMSO so that the final concentration of DMSO was <2%, and the reaction was initiated with Rho kinase variants. After incubation, the reaction was terminated by the addition of EDTA and the phosphorylated and non-phosphorylated peptides separated using a LabChip 3000 Reader (Caliper Life Sciences). […] Compounds were tested in dose-response format, and the inhibition of kinase activity was calculated at each concentration of compound. The inhibition data were fit using a curve-fitting program to determine the IC50; i.e., the concentration of compound required to inhibit 50% of kinase activity.”

[5] = biological target: ROCK2 (Homo sapiens (Human), UniProt O75116); assay: ROCK assay (LabChip peptide phosphorylation), ROCK2; assay type: biochemical; settings: 5 μM ATP, 1.5 μM peptide substrate
Procedure: as §1

[6] = tested on: rat stroke model; settings: in vivo; cited from earlier work
[7] = tested on: IL-1 beta-induced coronary stenosis; settings: long term treatment; cited from earlier work

Sequence of ROCK1 (Q13464 whole entry, species assumed): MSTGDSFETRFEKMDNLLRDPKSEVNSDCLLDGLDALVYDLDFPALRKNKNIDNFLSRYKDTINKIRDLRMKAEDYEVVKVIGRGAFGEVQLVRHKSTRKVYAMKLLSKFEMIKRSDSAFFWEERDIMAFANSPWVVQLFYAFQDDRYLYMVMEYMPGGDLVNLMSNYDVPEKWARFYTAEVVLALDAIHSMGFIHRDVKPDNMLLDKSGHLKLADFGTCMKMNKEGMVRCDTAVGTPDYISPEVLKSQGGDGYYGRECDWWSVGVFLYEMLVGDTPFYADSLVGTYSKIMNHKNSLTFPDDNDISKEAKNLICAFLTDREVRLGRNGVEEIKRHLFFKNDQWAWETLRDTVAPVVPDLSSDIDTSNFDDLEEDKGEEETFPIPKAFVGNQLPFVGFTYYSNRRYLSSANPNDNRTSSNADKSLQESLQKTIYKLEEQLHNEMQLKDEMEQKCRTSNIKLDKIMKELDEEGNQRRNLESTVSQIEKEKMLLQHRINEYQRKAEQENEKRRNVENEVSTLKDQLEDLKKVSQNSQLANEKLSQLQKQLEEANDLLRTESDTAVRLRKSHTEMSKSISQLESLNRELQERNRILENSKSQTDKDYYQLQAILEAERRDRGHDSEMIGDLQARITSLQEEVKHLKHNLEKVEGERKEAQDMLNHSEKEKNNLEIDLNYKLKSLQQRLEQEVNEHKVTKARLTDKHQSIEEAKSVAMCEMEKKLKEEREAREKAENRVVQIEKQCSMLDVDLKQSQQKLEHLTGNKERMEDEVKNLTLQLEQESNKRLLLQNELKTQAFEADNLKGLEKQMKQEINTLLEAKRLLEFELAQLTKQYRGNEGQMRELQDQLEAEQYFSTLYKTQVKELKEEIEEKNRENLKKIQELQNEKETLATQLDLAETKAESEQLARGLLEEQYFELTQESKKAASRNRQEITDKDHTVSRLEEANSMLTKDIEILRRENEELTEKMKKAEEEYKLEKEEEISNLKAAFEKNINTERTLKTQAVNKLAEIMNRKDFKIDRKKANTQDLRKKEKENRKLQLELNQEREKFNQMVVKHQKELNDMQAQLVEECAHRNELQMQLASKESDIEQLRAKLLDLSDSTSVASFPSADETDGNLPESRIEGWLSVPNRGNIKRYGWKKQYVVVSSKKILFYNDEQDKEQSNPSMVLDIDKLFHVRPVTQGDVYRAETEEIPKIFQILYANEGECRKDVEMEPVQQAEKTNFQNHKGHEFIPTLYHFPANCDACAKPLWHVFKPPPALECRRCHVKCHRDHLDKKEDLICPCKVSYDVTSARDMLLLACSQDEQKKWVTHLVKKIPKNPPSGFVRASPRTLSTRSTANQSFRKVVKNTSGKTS
Sequence of ROCK2 (O75116 whole entry, species assumed): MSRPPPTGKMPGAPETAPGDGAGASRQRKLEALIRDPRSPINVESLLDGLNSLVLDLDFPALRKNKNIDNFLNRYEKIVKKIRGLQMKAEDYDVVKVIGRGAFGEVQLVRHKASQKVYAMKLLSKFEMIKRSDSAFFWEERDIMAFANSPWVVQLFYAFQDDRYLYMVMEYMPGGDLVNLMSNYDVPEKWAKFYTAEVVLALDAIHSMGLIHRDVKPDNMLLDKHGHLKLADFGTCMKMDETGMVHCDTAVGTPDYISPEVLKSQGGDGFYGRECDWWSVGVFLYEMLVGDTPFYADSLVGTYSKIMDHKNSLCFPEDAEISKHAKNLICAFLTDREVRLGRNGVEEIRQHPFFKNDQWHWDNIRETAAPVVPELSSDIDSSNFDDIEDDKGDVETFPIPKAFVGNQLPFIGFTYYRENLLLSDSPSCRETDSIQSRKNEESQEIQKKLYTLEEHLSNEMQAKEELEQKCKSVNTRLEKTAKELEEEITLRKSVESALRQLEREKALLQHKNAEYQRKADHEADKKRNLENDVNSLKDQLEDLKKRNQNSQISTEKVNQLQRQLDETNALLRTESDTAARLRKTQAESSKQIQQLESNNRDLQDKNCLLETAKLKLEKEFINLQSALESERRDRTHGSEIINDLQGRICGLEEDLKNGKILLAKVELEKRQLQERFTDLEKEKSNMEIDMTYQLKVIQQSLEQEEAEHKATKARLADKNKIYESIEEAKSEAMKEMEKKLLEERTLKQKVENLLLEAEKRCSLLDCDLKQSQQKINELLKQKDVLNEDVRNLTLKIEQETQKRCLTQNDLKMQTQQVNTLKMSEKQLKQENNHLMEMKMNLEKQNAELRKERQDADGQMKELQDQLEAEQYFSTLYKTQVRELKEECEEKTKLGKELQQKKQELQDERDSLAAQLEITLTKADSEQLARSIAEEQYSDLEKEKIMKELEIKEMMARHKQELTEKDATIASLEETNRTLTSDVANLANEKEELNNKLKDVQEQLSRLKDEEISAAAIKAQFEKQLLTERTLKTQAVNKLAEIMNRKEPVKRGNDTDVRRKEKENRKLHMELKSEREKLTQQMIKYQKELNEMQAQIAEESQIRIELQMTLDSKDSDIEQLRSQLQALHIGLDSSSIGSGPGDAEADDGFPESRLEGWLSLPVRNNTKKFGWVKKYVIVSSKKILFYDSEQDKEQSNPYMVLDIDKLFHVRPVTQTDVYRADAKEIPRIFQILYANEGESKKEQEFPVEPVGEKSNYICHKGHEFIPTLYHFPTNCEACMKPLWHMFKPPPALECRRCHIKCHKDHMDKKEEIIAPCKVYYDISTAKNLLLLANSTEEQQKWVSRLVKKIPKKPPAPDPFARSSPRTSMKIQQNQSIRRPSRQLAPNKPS

Row | IC50 [4] [nM] | IC50 [5] [nM] | Structure (SMILES) | further results
1 |  |  | C[C@@H](N)[C@H]1CC[C@H](C(=O)Nc2ccncc2)CC1 [Example Y-27632, Y-27632] | neointimal formation [1]: inhibited neointimal formation; blood pressure ([2]; control rats): only a minor effect on blood pressure; blood pressure ([2]; three rat models of hypertension): significantly decrease blood pressure; ventricular hypertrophy, fibrosis and function [3]: improve ventricular hypertrophy, fibrosis and function
2 | 679 | 30 | O=C(Cc1ccc(-c2n[nH]c(=O)c3ccccc23)cc1)N1Cc2ccc(F)cc2C1 [Example 2, 4-(4-(2-(5-fluoroisoindolin-2-yl)-2-oxoethyl)phenyl)phthalazin-1(2H)-one] | 
3 | 35 | 0.3 | CN(C)c1ccc(C(=O)Nc2ccc(-c3n[nH]c(=O)c4ccccc34)cc2)cc1 [Example 58] | 
4 | 49 | 2.1 | O=C(Nc1ccc(-c2n[nH]c(=O)c3ccccc23)cc1)c1ccc(N2CCCCC2)cc1 [Example 61] | 
5 | 670 | 39 | O=C(Nc1ccc(-c2n[nH]c(=O)c3ccccc23)cc1)c1csc(-c2ccc(C(F)(F)F)cc2)n1 [Example 48] | 
6 | 6480 | 5830 | O=C(Cc1ccc(-c2n[nH]c(=O)c3ccccc23)cc1)NC1CCC1 [Example 19] | 
7 | 729 | 17 | O=C(Cc1ccc(-c2n[nH]c(=O)c3ccccc23)cc1)Nc1nc2ccccc2o1 [Example 10] | 
8 |  |  | O=S(=O)(c1cccc2cnccc12)N1CCCNCC1 [fasudil] | infarct size [6]: reduce; neurologic deficit [6]: reduce; coronary constrictive remodeling [7]: promote a regression of coronary constrictive remodeling; coronary stenosis [7]: progressively reduce coronary stenosis
9 | 23 | 1.2 | CCOc1ccc2c(c1)N(C(=O)Cc1ccc(-c3n[nH]c(=O)c4ccccc34)cc1)CC2 [Example 33] | 
10 | 16200 | 9730 | COC[C@@H]1CCCN1C(=O)Cc1ccc(-c2n[nH]c(=O)c3ccccc23)cc1 [Example 13] | 
11 | 544 | 225 | Cn1ccnc1C(=O)Nc1ccc(-c2n[nH]c(=O)c3ccccc23)cc1 [Example 52] | 
12 | 11900 | 553 | O=C(Cc1ccc(-c2n[nH]c(=O)c3ccccc23)cc1)N1CCCc2ccccc21 [Example 34] | 

Row | Structure (SMILES) | IC50 [4] [nM] | IC50 [5] [nM] | further results
13 | O=C(Oc1ccc(-c2n[nH]c(=O)c3ccccc23)cc1)N1CCC(c2ccccc2)C1 (stereo not shown) [Example 69, 4-(4-oxo-3,4-dihydrophthalazin-1-yl)phenyl 3-phenylpyrrolidine-1-carboxylate] | 50000 | 894 | 
14 | O=C(Nc1ccc(-c2n[nH]c(=O)c3ccccc23)cc1)c1ccccc1 [Example 67] | 175 | 14 | 
15 | O=C(Nc1ccc(-c2n[nH]c(=O)c3ccccc23)cc1)N1CCc2ccccc21 [Example 76, N-(4-(4-oxo-3,4-dihydrophthalazin-1-yl)phenyl)indoline-1-carboxamide] | 20 | 1.2 | 
